Experimental data as given in patent US20080227688A1, “Inhibition of viral replication” (priority 2007, published 2008).

Test system: reovirus
Type: cell-based, Dearing strain of reovirus serotype 3

With `C[C@H](NC(=O)[C@H](Cc1ccccc1)NC(=O)OCc1ccccc1)C(=O)CF` [Z-FA-FMK, N-benzyloxycarbonyl-Phe-Ala-fluoromethylketone] as the compound, how does the “cure of persistent reovirus infection (western blot, reovirus antiserum)” value read?
Its value is “cured persistently infected cells”.
